Entries after “also recorded” stand apart in the source; their conditions may differ.
Columns and labels:
[1] = tested on: Tropinone reductase homolog at 1g07440-like (gene 10, Solyc06g083470.2); test: qRT-PCR expression of gene 10 in tomato leaves; type: in vivo, Tomato ecotype corbarino; design: key: relative expression normalized to a-tubulin housekeeping gene
Experimental: (§1) Tomato ecotype “corbarino” reported to be susceptible to TSWV infection was used in the experiment. Plants were grown in pots in a climatic chamber with a photoperiod of 16/8 hour at 25° C.
(§2) The viral strain (TSWV PV PV-0393) was utilized in the experiment. The virus was mechanically inoculated and propagated on tomato “corbarino”. The inoculum was prepared in an ice-cooled mortar grounding 1 gr of infected tomato tissue in 10 ml of Na-phosphate buffer 0.01M. The fresh prepared inoculum was stored in ice before use. Tomato plants at BBCH16 were dusted with Carborundum 600 mesh and selected leaves were rubbed with some droplets of inoculum. After 5 min. plants were sprayed with sterile water to remove the excess of inoculum and preserve the cell turgor.
(§3) Four treatments were compared: i) Mock inoculated; ii) TSWV; iii) 0.25% Laminarin; iv) 0.25% Laminarin+TSWV. In the last treatment the virus was inoculated 24 hrs after the laminarin application.
(§4) Total RNA was extracted from systemic infected tomato leaves by using the Quick-RNA Plant Kit (Zymo Research) following the manufacturer instructions. The extractions were carried out using three plants after 12 h, 24 h, 48 h, 72 h, 7 days after inoculation. Leaves were instantly frozen in liquid nitrogen after cutting to avoid any deterioration of the sample as well as any defense reaction. The RNA concentration was quantified by measuring the absorbance at 260 nm using a Nanodrop 2000 (Thermofisher). The purity of all of the RNA samples was assessed at an absorbance ratio of OD260/280 and OD260/230, while its structural integrity was checked by agarose gel electrophoresis. Only high-quality RNA with OD 260/280 and OD 260/230>2 was used for subsequent steps. Single-stranded cDNA was synthesized from 1 μg of total RNA using an iScript™ Select cDNA Synthesis Kit and random hexamers as primers (Bio-Rad, Milan, Italy), according to the manufacturer's instructions. Three biological replicates were created from the 3 leaves collected to test 15 genes. Alpha tubulin was used as reference gene.
(§5) qPCR reactions were performed with BioRad (Applied Biosystems, Foster City, CA, USA) using SYBR R Green. Each reaction was performed in 20 μl containing 10 μl of 2× Power SYBR Green PCR Master Mix (Life Technologies), 0.2-0.3 μM primers and cDNA samples diluted 1:20. Each qPCR reaction was performed in triplicate. Reactions were run using the cycling parameter described previously (Reid et al., 2006) and the qPCR data were analyzed by the Ct method (Pfaffl, 2001). In order to analyze the qPCR data, a-tubulin gene was used as housekeeping to determine the relative expression level of the other genes analyzed in this work. For the determination of qPCR efficiency of each primer pairs, a standard curve was performed using the following cDNA dilutions: 1:4, 1:16, 1:64; 1:256 and 1:1024. Every measurement was made in triplicate. The corresponding qPCR efficiencies (E) were calculated for every primer pair with the software 7300 System SDS software (Applied Biosystems, Foster City, CA, USA) according to the equation E=(10−1/slope−1)×100 (Rutledge and Stewart, 2008).
(§6) The significance of the differences between the gene expressions levels were compared by one-way ANOVA (p=0.01) and the means were separated by Tukey post-hoc test using SPSS ver.26 ([…]).

[2] = tested on: Regulator of gene silencing (gene 14, AY642285.1); test: qRT-PCR expression of gene 14 in tomato leaves; type: in vivo, Tomato ecotype corbarino; design: key to RQ1 / RQ2 / RQ3 / RQ mean: relative expression normalized to a-tubulin housekeeping gene; conditions: for gene 14 expression compared to TSWV treatment: 48 hr; for gene 14 expression: 72 hr
Experimental: as §1, §2, §3, §4, §5, §6

[3] = Gene_14, 12 hr, treatment Laminarin
[4] = Gene_14, 12 hr, treatment Laminarin + virus
[5] = Gene_14, 24 hr, treatment Laminarin
[6] = Gene_14, 24 hr, treatment Laminarin + virus
[7] = Gene_14, 48 hr, treatment Laminarin
[8] = Gene_14, 48 hr, treatment Laminarin + virus
[9] = Gene_14, 72 hr, treatment Laminarin
[10] = Gene_14, 72 hr, treatment Laminarin + virus

laminarin
RQ1 ([1]; 12 hr, Laminarin + virus): 11.314
RQ2 ([1]; 12 hr, Laminarin + virus): 15.111
RQ3 ([1]; 12 hr, Laminarin + virus): 14.571
RQ mean ([1]; 12 hr, Laminarin + virus): 13.665
RQ1 ([1]; 12 hr, Laminarin alone): 10.134
RQ2 ([1]; 12 hr, Laminarin alone): 11.716
RQ3 ([1]; 12 hr, Laminarin alone): 14.046
RQ mean ([1]; 12 hr, Laminarin alone): 11.966
RQ1 ([1]; 24 hr, Laminarin + virus): 12.827
RQ2 ([1]; 24 hr, Laminarin + virus): 10.653
RQ3 ([1]; 24 hr, Laminarin + virus): 14.308
RQ mean ([1]; 24 hr, Laminarin + virus): 12.596
RQ1 ([1]; 24 hr, Laminarin alone): 13.673
RQ2 ([1]; 24 hr, Laminarin alone): 15.462
RQ3 ([1]; 24 hr, Laminarin alone): 14.026
RQ mean ([1]; 24 hr, Laminarin alone): 14.387
RQ1 ([1]; 48 hr, Laminarin + virus): 10.393
RQ2 ([1]; 48 hr, Laminarin + virus): 11.439
RQ3 ([1]; 48 hr, Laminarin + virus): 11.568
RQ mean ([1]; 48 hr, Laminarin + virus): 11.133
RQ1 ([1]; 48 hr, Laminarin alone): 14.550
RQ2 ([1]; 48 hr, Laminarin alone): 13.402
RQ3 ([1]; 48 hr, Laminarin alone): 19.692
RQ mean ([1]; 48 hr, Laminarin alone): 15.882
RQ1 ([1]; 72 hr, Laminarin + virus): 10.994
RQ2 ([1]; 72 hr, Laminarin + virus): 19.941
RQ3 ([1]; 72 hr, Laminarin + virus): 16.529
RQ mean ([1]; 72 hr, Laminarin + virus): 15.821
RQ1 ([1]; 72 hr, Laminarin alone): 28.092
RQ2 ([1]; 72 hr, Laminarin alone): 16.708
RQ3 ([1]; 72 hr, Laminarin alone): 22.307
RQ mean ([1]; 72 hr, Laminarin alone): 22.369
gene 14 expression compared to TSWV treatment ([2]; 0.25% laminarin + TSWV inoculated 24 hrs later): inverted
gene 14 expression compared to TSWV treatment ([2]; 0.25% laminarin alone): inverted
gene 14 expression ([2]; Laminarin alone): no clear overexpression; also recorded: down regulation
gene 14 expression ([2]; laminarin with TSWV): down regulation
RQ1 [2, 3]: 12.337
RQ2 [2, 3]: 10.845
RQ3 [2, 3]: 11.390
RQ mean [2, 3]: 11.524
RQ1 [2, 4]: 14.800
RQ2 [2, 4]: 14.769
RQ3 [2, 4]: 10.304
RQ mean [2, 4]: 13.291
RQ1 [2, 5]: 15.741
RQ2 [2, 5]: 11.640
RQ3 [2, 5]: 12.032
RQ mean [2, 5]: 13.138
RQ1 [2, 6]: 10.995
RQ2 [2, 6]: 12.080
RQ3 [2, 6]: 12.197
RQ mean [2, 6]: 11.758
RQ1 [2, 7]: 0.3028
RQ2 [2, 7]: 0.7177
RQ3 [2, 7]: 0.5353
RQ mean [2, 7]: 0.5186
RQ1 [2, 8]: 0.5979
RQ2 [2, 8]: 0.3384
RQ3 [2, 8]: 0.4902
RQ mean [2, 8]: 0.4755
RQ1 [2, 9]: 0.2805
RQ2 [2, 9]: 0.3706
RQ3 [2, 9]: 0.3064
RQ mean [2, 9]: 0.3192
RQ1 [2, 10]: 0.5857
RQ2 [2, 10]: 0.5072
RQ3 [2, 10]: 0.2692
RQ mean [2, 10]: 0.4540

Source: patent publication US20240099214A1, “PLANT DEFENCE GENE EXPRESSION” (UPL Corporation Limited, priority 2021, published 2024)
